The record followed here is patent publication US20250089717A1, “FUNGICIDAL HALOMETHYL KETONES, HYDRATES AND ENOL ETHERS AND THEIR MIXTURES” (FMC CORPORATION, priority 2023, published 2025).

Values joined by “and” are separate entries in the source; they are usually repeats but may differ in a detail not shown here. Identical values can stand only once.

For the first test, the system named is Phakopsora pachyrhizi. The experiment in a line: Test A: preventive spray on soybean seedlings, Asian soybean rust, visual disease rating. The format is in vivo. The note with it: rate 10 ppm. The text has this:
General protocol for preparing test suspensions for Test A: the test compounds were first dissolved in acetone in an amount equal to 3% of the final volume and then suspended at the desired concentration (in ppm) in acetone and purified water (50/50 mix by volume) containing 250 ppm of the surfactant PEG400 (polyhydric alcohol esters). The resulting test suspensions were then used in Test A.
The test solution was sprayed to the point of run-off on soybean seedlings. The following day the seedlings were inoculated with a spore suspension of Phakopsora pachyrhizi (the causal agent of Asian soybean rust) and incubated in a saturated atmosphere at 22° C. for 24 h and then moved to a growth chamber at 22° C. for 8 days, after which time visual disease ratings were made.
A rating of 100 indicates 100% disease control and a rating of 0 indicates no disease control (relative to the controls).
Consider `CCO/C(=C\Oc1ccc(Cn2cc(COC(=O)CC#N)nn2)cc1)C(F)(F)F` [Compound 9], for which the “Test A rating (100 = 100% disease control, 0 = no disease control relative to the controls)” value worked out at 0%. Same read-out and setting: in the case of `CCO/C(=C\Oc1ccc(Cn2cc(COC(=O)COC)nn2)cc1)C(F)(F)F` [Compound 10] it was 0%; in that of `CCO/C(=C\Oc1ccc(Cn2cc(COC(=O)CC(F)(F)F)nn2)cc1)C(F)(F)F` [Compound 11], 0%.

As for `CCO/C(=C\Oc1ccc(Cn2cc(COC(=O)C3CCCC3)nn2)cc1)C(F)(F)F` [Compound 12], the “Test A rating (100 = 100% disease control, 0 = no disease control relative to the controls)” value is recorded as 79%. Same read-out and setting: then `CCO/C(=C\Oc1ccc(Cn2cc(COC(C)=O)nn2)cc1)C(F)(F)F` [Compound 37], with 100%; and `C#CCOCc1cn(Cc2ccc(O/C=C(\OCC)C(F)(F)F)cc2)nn1` [Compound 38], with 78% and 88%.

As for `CCO/C(=C\Oc1ccc(Cn2cc(COC(=O)C(=O)OC)cn2)cc1)C(F)(F)F` [Compound 48, 1-[[1-[[4-[[(1Z)-2-ethoxy-3,3,3-trifluoro-1-propen-1-yl]oxy]phenyl]methyl]-1H-pyrazol-4-yl]methyl]2-methyl ethanedioate], the “Test A rating (100 = 100% disease control, 0 = no disease control relative to the controls)” value is recorded as 100%. On the same count and under the same terms, then `CCO/C(=C\Oc1ccc(Cn2cc(COC(=O)OC)cn2)cc1)C(F)(F)F` [Compound 52, 1-[[4-[[(1Z)-2-ethoxy-3,3,3-trifluoro-1-propen-1-yl]oxy]phenyl]methyl]-1H-pyrazol-4-yl]methyl methyl carbonate], with 100%; and `C=CCON(CC)C(=O)c1cnn(Cc2ccc(O/C=C(\OCC)C(F)(F)F)cc2)c1` [Compound 55, ethyl 1-[[4-[[(1Z)-2-ethoxy-3,3,3-trifluoro-1-propen-1-yl]oxy]phenyl]methyl]-N-(2-propen-1-yloxy)-1H-pyrazole-4-carboxamide], with 100%.

As for `CCO/C(=C\Oc1ccc(Cn2cc(COCC3CC3)cn2)c(F)c1)C(F)(F)F` [Compound 68], the “Test A rating (100 = 100% disease control, 0 = no disease control relative to the controls)” value came out at 100%. For the molecule `CCO/C(=C\Oc1ccc(Cn2cc(COC(=O)OC)cn2)c(F)c1F)C(F)(F)F` [Compound 69], the “Test A rating (100 = 100% disease control, 0 = no disease control relative to the controls)” value is 100%. Same read-out and setting: then `CCO/C(=C\Oc1ccc(Cn2cc(COC(=O)CC)cn2)c(F)c1F)C(F)(F)F` [Compound 70], with 100%; and `CCO/C(=C\Oc1ccc(Cn2cc(COC(=O)C3CC3)cn2)c(F)c1F)C(F)(F)F` [Compound 71], with 100%; and `CCO/C(=C\Oc1ccc(Cn2cc(COC(=O)C(C)(C)C)cn2)c(F)c1F)C(F)(F)F` [Compound 72], with 100%.

Consider `CCO/C(=C\Oc1ccc(Cn2cc(COC(=O)C(C)(C)C)cn2)c(F)c1)C(F)(F)F` [Compound 73], for which the “Test A rating (100 = 100% disease control, 0 = no disease control relative to the controls)” value turned out to be 100%.

For `CCO/C(=C\Oc1ccc(Cn2cc(COC(=O)COC)cn2)c(F)c1F)C(F)(F)F` [Compound 74], the “Test A rating (100 = 100% disease control, 0 = no disease control relative to the controls)” value is 100%.

As to `CCO/C(=C\Oc1ccc(Cn2cc(COC(=O)COC)cn2)c(F)c1)C(F)(F)F` [Compound 75], the “Test A rating (100 = 100% disease control, 0 = no disease control relative to the controls)” value was 100%. For `CCO/C(=C\Oc1ccc(Cn2cc(COC(=O)C3CC3)cn2)c(F)c1)C(F)(F)F` [Compound 76], the “Test A rating (100 = 100% disease control, 0 = no disease control relative to the controls)” value was found to be 100%. On the same count and under the same terms, then `CCO/C(=C\Oc1ccc(Cn2cc(COC(=O)CC)cn2)c(F)c1)C(F)(F)F` [Compound 77], with 100%.

`CCO/C(=C\Oc1ccc(Cn2cc(C(=O)NOCC#N)cn2)c(F)c1F)C(F)(F)F` [Compound 78]: the “Test A rating (100 = 100% disease control, 0 = no disease control relative to the controls)” value was determined as 100%.

The same test, now with this note: rate 10 ppm, read-out: Test A rating (100 = 100% disease control, 0 = no disease control relative to the controls).
As to `O=C(OCc1cnn(Cc2ccc(OCC3(C(F)(F)F)OCCO3)cc2)c1)C1CCCC1` [Compound 4, [1-[[4-[[2-(trifluoromethyl)-1,3-dioxolan-2-yl]methoxy]phenyl]methyl]-1H-pyrazol-4-yl]methyl cyclopentanecarboxylate], the pest or weed control at 10 ppm worked out at 90%. The same measure, in the same setting: then `CCOC(=S)c1cnn(Cc2ccc(O/C=C(\OCC)C(F)(F)F)cc2)c1` [Compound 7, O-ethyl 1-[[4-[[(1Z)-2-ethoxy-3,3,3-trifluoro-1-propen-1-yl]oxy]phenyl]methyl]-1H-pyrazole-4-carbothioate], with 100%; and `CCO/C(=C\Oc1ccc(Cn2cc(COC(=O)N(C)OC)cn2)cc1)C(F)(F)F` [Compound 18, (Z)-(1-(4-((2-ethoxy-3,3,3-trifluoroprop-1-en-1-yl)oxy)benzyl)-1H-pyrazol-4-yl)methyl methoxy(methyl)carbamate], with 100%; and `CCO/C(=C\Oc1ccc(Cn2cc(COC(=O)CC)cn2)cc1)C(F)(F)F` [Compound 21, [1-[[4-[[(1Z)-2-ethoxy-3,3,3-trifluoro-1-propen-1-yl]oxy]phenyl]methyl]-1H-pyrazol-4-yl]methyl propanoate], with 100%. On the same count and under the same terms, in the case of `CCO/C(=C\Oc1ccc(Cn2cc(COC(C)=O)cn2)cc1)C(F)(F)F` [Compound 22, [1-[[4-[[(1Z)-2-ethoxy-3,3,3-trifluoro-1-propen-1-yl]oxy]phenyl]methyl]-1H-pyrazol-4-yl]methyl acetate] it was 100%. For the molecule `CCO/C(=C\Oc1ccc(Cn2cc(COC(=O)COC)cn2)cc1)C(F)(F)F` [Compound 23, [1-[[4-[[(1Z)-2-ethoxy-3,3,3-trifluoro-1-propen-1-yl]oxy]phenyl]methyl]-1H-pyrazol-4-yl]methyl 2-methoxyacetate], the pest or weed control at 10 ppm was found to be 100%.

For `CCO/C(=C\Oc1ccc(Cn2cc(COC(=O)CC(C)C)cn2)cc1)C(F)(F)F` [Compound 27, [1-[[4-[[(1Z)-2-ethoxy-3,3,3-trifluoro-1-propen-1-yl]oxy]phenyl]methyl]-1H-pyrazol-4-yl]methyl 3-methylbutanoate], the pest or weed control at 10 ppm turned out to be 100%. As to `CCCC(C)C(=O)OCc1cnn(Cc2ccc(O/C=C(\OCC)C(F)(F)F)cc2)c1` (stereo not shown) [Compound 30, [1-[[4-[[(1Z)-2-ethoxy-3,3,3-trifluoro-1-propen-1-yl]oxy]phenyl]methyl]-1H-pyrazol-4-yl]methyl 2-methylpentanoate], the pest or weed control at 10 ppm is 100%.

As for `CCO/C(=C\Oc1ccc(Cn2cc(C(=O)NOCc3ccccc3)cn2)cc1)C(F)(F)F` [Compound 31, 1-[[4-[[(1Z)-2-ethoxy-3,3,3-trifluoro-1-propen-1-yl]oxy]phenyl]methyl]-N-(phenylmethoxy)-1H-pyrazole-4-carboxamide], the pest or weed control at 10 ppm amounted to 100%. On to `CCO/C(=C\Oc1ccc(Cn2cc(COC(=O)CC(F)(F)F)cn2)cc1)C(F)(F)F` [Compound 35, [1-[[4-[[(1Z)-2-ethoxy-3,3,3-trifluoro-1-propen-1-yl]oxy]phenyl]methyl]-1H-pyrazol-4-yl]methyl 3,3,3-trifluoropropanoate], for which the pest or weed control at 10 ppm is 100%. On the same count and under the same terms, in the case of `C=CCON=C(OCC)c1cnn(Cc2ccc(O/C=C(\OCC)C(F)(F)F)cc2)c1` [Compound 40, ethyl 1-[[4-[[(1Z)-2-ethoxy-3,3,3-trifluoro-1-propen-1-yl]oxy]phenyl]methyl]-N-(2-propen-1-yloxy)-1H-pyrazole-4-carboximidate] it was 100%; in that of `CCO/C(=C\Oc1ccc(Cn2cc(C(=O)NOCC(F)(F)F)cn2)cc1)C(F)(F)F` [Compound 45, 1-[[4-[[(1Z)-2-ethoxy-3,3,3-trifluoro-1-propen-1-yl]oxy]phenyl]methyl]-N-(2,2,2-trifluoroethoxy)-1H-pyrazole-4-carboxamide], 100%; in that of `CCO/C(=C\Oc1ccc(Cn2cc(COC(=O)C(C)C)cn2)cc1)C(F)(F)F` [Compound 46, [1-[[4-[[(1Z)-2-ethoxy-3,3,3-trifluoro-1-propen-1-yl]oxy]phenyl]methyl]-1H-pyrazol-4-yl]methyl 2-methylpropanoate], 100%.

Regarding `CCO/C(=C\Oc1ccc(Cn2cc(COC(=O)C(C)(C)C)cn2)cc1)C(F)(F)F` [Compound 47, [1-[[4-[[(1Z)-2-ethoxy-3,3,3-trifluoro-1-propen-1-yl]oxy]phenyl]methyl]-1H-pyrazol-4-yl]methyl 2,2-dimethylpropanoate], the pest or weed control at 10 ppm stood at 100%.

Consider `CCO/C(=C\Oc1ccc(Cn2cc(COC(=O)CCSC)cn2)cc1)C(F)(F)F` [Compound 50, [1-[[4-[[(1Z)-2-ethoxy-3,3,3-trifluoro-1-propen-1-yl]oxy]phenyl]methyl]-1H-pyrazol-4-yl]methyl 3-(methylthio)propanoate], for which the pest or weed control at 10 ppm amounted to 100%. Consider `CCOC(=O)C(OC(C)=O)c1cnn(Cc2ccc(O/C=C(\OCC)C(F)(F)F)cc2)c1` (stereo not drawn) [Compound 54, ethyl α-(acetyloxy)-1-[[4-[[(1Z)-2-ethoxy-3,3,3-trifluoro-1-propen-1-yl]oxy]phenyl]methyl]-1H-pyrazole-4-acetate], for which the pest or weed control at 10 ppm is 100%.

Staying with this test, now noted: rate 50 ppm, read-out: Test A rating (100 = 100% disease control, 0 = no disease control relative to the controls).
`CCO/C(=C\Oc1ccc(Cn2cc(CC(=O)N(C)OC)cn2)cc1)C(F)(F)F` [Compound 5, 1-[[4-[[(1Z)-2-ethoxy-3,3,3-trifluoro-1-propen-1-yl]oxy]phenyl]methyl]-N-methoxy-N-methyl-1H-pyrazole-4-acetamide]: the pest or weed control at 50 ppm stood at 94%.
